Reference: patent US6541463B1, “Inhibitors of type 5 and type 3 17β-hydroxysteroid dehydrogenase and methods for their use” (Endorecherche, Inc., priority 1998, dated 2003)

What was measured:
estrogen receptor = biological target: T1, estrogen receptor (Rattus norvegicus, UniProt P06211); assay: Estrogen receptor (ER) assay: inhibition of [3H]E2 binding, uterine cytosol; settings: Table 4′
T1 construct: from tissue; host or cells: uterine cytosol of gonadectomized female Sprague-Dawley rats
T1 sequence (P06211 1-600): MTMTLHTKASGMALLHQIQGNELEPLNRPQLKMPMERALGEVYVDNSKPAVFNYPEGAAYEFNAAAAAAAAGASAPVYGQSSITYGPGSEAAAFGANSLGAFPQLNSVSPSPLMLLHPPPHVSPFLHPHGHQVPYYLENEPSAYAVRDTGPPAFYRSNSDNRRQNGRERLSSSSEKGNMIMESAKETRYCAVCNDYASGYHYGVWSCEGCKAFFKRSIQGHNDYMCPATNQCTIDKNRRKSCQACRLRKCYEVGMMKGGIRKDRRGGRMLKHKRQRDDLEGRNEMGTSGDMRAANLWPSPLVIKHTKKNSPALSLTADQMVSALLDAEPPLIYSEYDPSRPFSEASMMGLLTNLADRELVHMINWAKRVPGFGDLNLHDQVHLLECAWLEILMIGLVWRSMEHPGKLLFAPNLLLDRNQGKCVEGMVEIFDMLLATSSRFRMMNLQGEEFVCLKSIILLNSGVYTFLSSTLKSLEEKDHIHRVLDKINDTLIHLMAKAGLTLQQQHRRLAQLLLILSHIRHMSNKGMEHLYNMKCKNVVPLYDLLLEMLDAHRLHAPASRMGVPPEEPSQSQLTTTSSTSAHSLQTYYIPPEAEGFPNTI
Protocol: Female Sprague-Dawley rats (Crl: CD(SD)Br) weighing 200-300 g were obtained from Charles-River Inc. (St-Constant, Québec, Canada). The rats were gonadectomized under general anesthesia (Isoflurane) and killed by cervical dislocation 24 hours later. The uteri were rapidly removed, dissected free from adhering tissue and frozen on dry-ice. Uteri were kept at −80° C. until assay. All subsequent steps were performed at 0-4° C. Uteri were homogenized in 10 vol (wt/vol) of buffer A (25 mM Tris-HCI, 1.5 mM EDTA disodium salt, 10 mM α-monothioglycerol, 10% glycerol, and 10 mM sodium molybdate, pH 7.4), using a Polytron PT-10 homogenizer (Brinkman Instruments, Canada) at a setting of 5 for three periods of 10 sec, with intervals of 10 sec for cooling. The homogenate was then centrifuged at 105,000×g for 60 min in a Beckman L5-65 ultracentrifuge (Fullerton, Calif.). The protein concentration of the cytosol fraction was measured according to the method of Bradford (Anal. Biochem. 72: 248-254, 1976), using bovine serum albumin as standard.
Estrogen binding was measured using the dextran-coated charcoal adsorption technique as described previously (Asselin et al., Endocrinology, 101: 666-671, 1977; Asselin and Labrie, J. Steroid Biochem., 9: 1079-1082, 1978). Briefly, [^3H]E2 solubilized in ethanol were diluted into buffer A. Aliquots of uterine cytosol preparation (0.1 ml) were incubated with 5 nM [^3H]E2 (˜200,000 cpm, 0.1 ml) in the presence or absence of the indicated concentrations of unlabeled compounds (0.1 ml, prepared in buffer A containing 10% ethanol) for 3 h at room temperature. Unbound steroids were then separated by incubation for 15 min at 0-4° C. with 0.3 ml 0.5% Norit-A and 0.05% Dextran T-70 in buffer B (1.5 mM EDTA disodium salt, 10 mM monothioglycerol, and 10 mM Tris-HCI, pH 7.4) and centrifuged at 3,000×g for 15 min. Aliquots of the supernatant (0.3 ml) were removed for radioactivity measurement.

[1] = In vivo assay of oral bioavailability (plasma AUC 0-7 h by LCMS/MS); parameters: species or system male Sprague Dawley rats; settings: male, Sprague-Dawley [Crl:CD(SD)Br], 0.5 mg; Table 4′; oral, rat plasma
Protocol: In column 1, the oral bioavailability of preferred type 5 inhibitors, expressed in ng/mL.h, was determined as described below in “Other Tests, A-In Vivo Assays of Bioavailability of Human Type 5 17β-HSD Inhibitors”. Higher number are desirable. ND means that a determination was not done.
The measurements at various time intervals were for values greater than or equal to 1.0 ng/mL and less than or equal to 50 ng/mL.
Male Sprague-Dawley rats [Crl:CD(SD)Br] weighing 275-350 g were obtained from Charles-River Canada Inc. and housed 2 per cage during the acclimation period and individually during the study period. The animals were maintained under a regimen of 12 hours light: 12 hours dark (lights on at 08:00). Animals received certified Rodent feed (Lab Diet #5002, pellets) and tap water ad libitum. Rats were fasted (access to water only) starting on the evening prior to dosing.
Each compound to be tested was administered to three animals as a suspension in 0.4% methylcellulose by oral gavage at a dose of 0.5 mg/rat (1.0 ml/rat). Four to eight new compounds were tested each day and one group of animals received megestrol acetate (MGA) under the same conditions on each dosing day as a reference. […] Blood samples were immediately transferred into a refrigerated 0.75 ml Microtainer containing EDTA and kept in an ice-water bath until centrifugation at 3000 rpm for 10 minutes. Plasma separation was performed rapidly (less than 50 minutes) after blood collection. One aliquot of 0.25 ml of plasma was then transferred into a borosilicate tube (13×100) and was rapidly frozen on dry-ice. Plasma samples were kept at −80° C. until measurement of plasma concentration of the inhibitor(s) by LCMS/MS.
Aliquots of rat plasma (0.250 mL) were transferred to 13×100 mm borosilicate tubes. Water (1.0 mL) and internal standard solution (0.1 mL) were added to each sample and vortexed for 2 min. A mixture of N-butyl chloride and acetone (v:v, 7:3) (3 mL) was added to each sample and vortexed for 2 min. This step was repeated and the combined organic phases were evaporated to dryness under nitrogen in a Turbo Vap evaporator at 35° C. The residue was reconstituted with 1 mL of methanol and evaporated in a Turbo Vap evaporator at 35° C. The final extract was reconstituted into 0.1 mL of methanol/water (v:v, 75:25) and then transferred into a conical vial for injection into the mass spectrometer.
The assay procedure was performed by analyzing, in duplicate, rat plasma samples spiked at six different Type 5 inhibitor concentrations (1, 2, 5, 10, 20 and 50 ng/mL). The lower limit of quantitation (LOQ) was established at 1.0 ng/mL. Values lower than 1.0 ng/mL were expressed as below limit of quantification (BLQ). […]

| Structure (SMILES) | % Inhibition Estrogen Receptor E^−6 (estrogen receptor) [%] | % Inhibition Estrogen Receptor E^−8 (estrogen receptor) [%] | AUC(0-t) [1] [ng·h/mL] |
| --- | --- | --- | --- |
| CC1(C)CC[C@@]2(CCC3C4CCc5cc(C(=O)O)ccc5C4CC[C@@]32C)OC1=O (stereo partly drawn) [EM-1401, 3-Carboxy-1,3,5(10)-estratrien-17(R)-spiro-2′-(5′,5′-dimethyl-6′-oxo)tetrahydropyran] | 2 | 5 | 1630 ± 181 |
| COCCOc1cc2c(cc1C(=O)OC)C1CC[C@@]3(C)C(CC[C@@]34CCC(C)(C)C(=O)O4)C1CC2 (stereo partly drawn) [EM-1402-CS, 2-Carbomethoxy-3-(2″-methoxyethyloxy)-1,3,5(10)-estratrien 17(R)-spiro-2′-(5′,5′-dimethyl-6′-oxo)tetrahydropyran] | 0 | 1 | 214 ± 36 |
| CC1(C)CC[C@@]2(CCC3C4CCc5cc(C(N)=O)ccc5C4CCC32C)OC1=O (stereo partly drawn) [EM-1404] | 0 | 0 | 3840 ± 197 |
| COCCOc1cc2c(cc1C(N)=O)C1CC[C@@]3(C)C(CC[C@@]34CCC(C)(C)C(=O)O4)C1CC2 (stereo partly drawn) [EM-1424, 2-Carbamoyl-3-(2″-methoxyethyloxy)-1,3,5(10)-estratrien 17(R)-spiro-2′-(5′,5′-dimethyl-6′-oxo)tetrahydropyran] | 3 | 3 | 368 ± 70 |
